Data as given in PubChem BioAssay AID328 (DTP/NCI, 2004).
Several values for one entry are separate records, joined by “and”; a condition that tells them apart may be missing. Equal entries are not always repeated. Inconclusive results and toxic doses are left out. Non-standard residues stand in square brackets, D forms with d. Residues, ends and D or L forms follow the SMILES beside them. ξ: configuration not given here. *: point of attachment. Nphe = O=C(O)CNCc1ccccc1; ξL = CC(C)CC(N)C(=O)O; Ms = CS(=O)(=O)*

System: BDF1 mice, P388 leukemia ip, median survival T/C
Test: NCI In Vivo Anticancer Drug Screen. Data for tumor model P388 Leukemia (intraperitoneal) in B6D2F1 (BDF1) mice
Details: endpoint: median survival time, higher = longer survival
Procedure, shortened: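 Survival ratio, drug arm over vehicle arm, in mice with a transplanted tumour.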

[1] = dose: 100.0 mg/kg/injection, schedule: Q04DX003 (ip), vehicle: saline with Tween-80
[2] = dose: 10.0 mg/kg/injection, schedule: Q01DX009 (ip), vehicle: saline
[3] = dose: 50.0 mg/kg/injection, schedule: Q01DX009 (ip), vehicle: other
[4] = dose: 50.0 mg/kg/injection, schedule: Q04DX003 (ip), vehicle: water
[5] = dose: 100.0 mg/kg/injection, schedule: Q04DX003 (ip), vehicle: water
[6] = dose: 200.0 mg/kg/injection, schedule: Q04DX003 (ip), vehicle: water
[7] = dose: 400.0 mg/kg/injection, schedule: Q04DX003 (ip), vehicle: water
[8] = dose: 25.0 mg/kg/injection, schedule: Q04DX003 (ip), vehicle: water
[9] = dose: 50.0 mg/kg/injection, schedule: Q01DX009 (ip), vehicle: saline with Tween-80
[10] = dose: 100.0 mg/kg/injection, schedule: Q01DX009 (ip), vehicle: saline with Tween-80

NC(C(=O)O)c1cc(=O)[nH]o1 (stereo not given)
T/C (dose: 0.25 mg/kg/injection, schedule: Q01DX009 (ip), vehicle: Klucel (hydroxypropylcellulose) (HPC)): 86 % of control
T/C (dose: 0.5 mg/kg/injection, schedule: Q01DX009 (ip), vehicle: Klucel (hydroxypropylcellulose) (HPC)): 97 % of control
T/C (dose: 1.0 mg/kg/injection, schedule: Q01DX009 (ip), vehicle: Klucel (hydroxypropylcellulose) (HPC)): 112 % of control

CC1CC/C(=N\N(C)C)c2ccccc21 (stereo not given)
T/C (dose: 67.0 mg/kg/injection, schedule: Q04DX003 (ip), vehicle: saline with Tween-80): 118 % of control
T/C [1]: 122 % of control
T/C (dose: 400.0 mg/kg/injection, schedule: Q04DX003 (ip), vehicle: saline with Tween-80): 120 % of control

Cc1cc(O)c2c(c1)C(=O)C(c1c(C)cc3c(c1O)C(=O)C=CC3=O)=CC2=O
T/C (dose: 1.25 mg/kg/injection, schedule: Q01DX009 (ip), vehicle: saline): 89 % of control
T/C (dose: 2.5 mg/kg/injection, schedule: Q01DX009 (ip), vehicle: saline): 114 % of control
T/C (dose: 5.0 mg/kg/injection, schedule: Q01DX009 (ip), vehicle: saline): 102 % of control
T/C [2]: 105 % of control and 116 % of control
T/C (dose: 14.0 mg/kg/injection, schedule: Q01DX009 (ip), vehicle: saline): 106 % of control
T/C (dose: 22.0 mg/kg/injection, schedule: Q01DX009 (ip), vehicle: saline): 116 % of control
T/C (dose: 35.0 mg/kg/injection, schedule: Q01DX009 (ip), vehicle: saline): 99 % of control

COc1ccc(NC(=O)Oc2ccc(-c3ccccc3)cc2Br)cc1
T/C (dose: 100.0 mg/kg/injection, schedule: Q04DX003 (ip), vehicle: Klucel (hydroxypropylcellulose) (HPC)): 91 % of control
T/C (dose: 200.0 mg/kg/injection, schedule: Q04DX003 (ip), vehicle: Klucel (hydroxypropylcellulose) (HPC)): 95 % of control
T/C (dose: 400.0 mg/kg/injection, schedule: Q04DX003 (ip), vehicle: Klucel (hydroxypropylcellulose) (HPC)): 91 % of control

O=S(=O)(Nc1ccc(NS(=O)(=O)c2ccccc2)c(S(=O)(=O)c2ccccc2)c1)c1ccccc1
T/C (dose: 100.0 mg/kg/injection, schedule: Q01DX001 (ip), vehicle: saline with Tween-80): 100 % of control
T/C (dose: 200.0 mg/kg/injection, schedule: Q01DX001 (ip), vehicle: saline with Tween-80): 100 % of control
T/C (dose: 400.0 mg/kg/injection, schedule: Q01DX001 (ip), vehicle: saline with Tween-80): 100 % of control

CCCCCCCCCCCCCCCCS(=O)(=O)NN
T/C (dose: 12.5 mg/kg/injection, schedule: Q01DX009 (ip), vehicle: other): 91 % of control
T/C (dose: 25.0 mg/kg/injection, schedule: Q01DX009 (ip), vehicle: other): 96 % of control
T/C [3]: 102 % of control

O=C(/C=C/c1ccccc1)c1ccc2c(c1)OCO2
T/C (dose: 50.0 mg/kg/injection, schedule: Q01DX009 (ip), vehicle: water): 99 % of control
T/C [4]: 99 % of control
T/C (dose: 100.0 mg/kg/injection, schedule: Q01DX009 (ip), vehicle: water): 108 % of control
T/C [5]: 94 % of control
T/C (dose: 200.0 mg/kg/injection, schedule: Q01DX009 (ip), vehicle: water): 101 % of control
T/C [6]: 103 % of control
T/C (dose: 400.0 mg/kg/injection, schedule: Q01DX009 (ip), vehicle: water): 108 % of control
T/C [7]: 94 % of control

CCOC(=S)SCC(=O)Nc1ccc(I)cc1
T/C (dose: 15.0 mg/kg/injection, schedule: Q01DX009 (ip), vehicle: saline with Tween-80): 93 % of control
T/C (dose: 30.0 mg/kg/injection, schedule: Q01DX009 (ip), vehicle: saline with Tween-80): 95 % of control
T/C (dose: 60.0 mg/kg/injection, schedule: Q01DX009 (ip), vehicle: saline with Tween-80): 98 % of control

CCC1COC(CC)N1 (stereo not given)
T/C (dose: 50.0 mg/kg/injection, schedule: Q01DX005 (ip), vehicle: saline with Tween-80): 103 % of control
T/C (dose: 100.0 mg/kg/injection, schedule: Q01DX005 (ip), vehicle: saline with Tween-80): 110 % of control
T/C (dose: 200.0 mg/kg/injection, schedule: Q01DX005 (ip), vehicle: saline with Tween-80): 120 % of control

O=C(O)CCCCCNC(=O)OCc1ccccc1
T/C (dose: 100.0 mg/kg/injection, schedule: Q01DX009 (ip), vehicle: gum acacia): 112 % of control
T/C (dose: 100.0 mg/kg/injection, schedule: Q04DX003 (ip), vehicle: gum acacia): 100 % of control
T/C (dose: 200.0 mg/kg/injection, schedule: Q01DX009 (ip), vehicle: gum acacia): 104 % of control
T/C (dose: 200.0 mg/kg/injection, schedule: Q04DX003 (ip), vehicle: gum acacia): 100 % of control
T/C (dose: 400.0 mg/kg/injection, schedule: Q01DX009 (ip), vehicle: gum acacia): 108 % of control
T/C (dose: 400.0 mg/kg/injection, schedule: Q04DX003 (ip), vehicle: gum acacia): 116 % of control

CN(C)Cc1cccc(N)c1
T/C (dose: 0.25 mg/kg/injection, schedule: Q01DX009 (ip), vehicle: water): 120 % of control
T/C (dose: 0.5 mg/kg/injection, schedule: Q01DX009 (ip), vehicle: water): 111 % of control
T/C (dose: 1.0 mg/kg/injection, schedule: Q01DX009 (ip), vehicle: water): 113 % of control
T/C (dose: 2.0 mg/kg/injection, schedule: Q01DX009 (ip), vehicle: water): 120 % of control
T/C (dose: 4.0 mg/kg/injection, schedule: Q01DX009 (ip), vehicle: water): 92 % of control
T/C (dose: 12.5 mg/kg/injection, schedule: Q04DX003 (ip), vehicle: water): 100 % of control
T/C [8]: 100 % of control
T/C [4]: 91 % of control
T/C [5]: 97 % of control

c1ccc(-c2nnc3ncccn23)cc1
T/C [9]: 96 % of control
T/C [10]: 93 % of control
T/C (dose: 200.0 mg/kg/injection, schedule: Q01DX009 (ip), vehicle: saline with Tween-80): 93 % of control

CC(C)CC(NC(=O)CN(Cc1ccccc1)S(C)(=O)=O)C(=O)O (stereo not given) (Ms-[Nphe]-[ξL]-OH)
T/C (dose: 6.25 mg/kg/injection, schedule: Q04DX003 (ip), vehicle: other): 110 % of control
T/C (dose: 12.5 mg/kg/injection, schedule: Q04DX003 (ip), vehicle: other): 97 % of control
T/C (dose: 25.0 mg/kg/injection, schedule: Q04DX003 (ip), vehicle: other): 113 % of control
T/C [3]: 151 % of control
T/C (dose: 50.0 mg/kg/injection, schedule: Q04DX003 (ip), vehicle: other): 95 % of control and 98 % of control
T/C (dose: 100.0 mg/kg/injection, schedule: Q04DX003 (ip), vehicle: other): 100 % of control and 103 % of control
T/C (dose: 200.0 mg/kg/injection, schedule: Q01DX009 (ip), vehicle: other): 89 % of control
T/C (dose: 200.0 mg/kg/injection, schedule: Q04DX003 (ip), vehicle: other): 98 % of control and 106 % of control
T/C (dose: 400.0 mg/kg/injection, schedule: Q04DX003 (ip), vehicle: other): 106 % of control

CNC(C)Cc1ccccc1OC (stereo not given)
T/C (dose: 12.5 mg/kg/injection, schedule: Q01DX009 (ip), vehicle: saline): 89 % of control
T/C (dose: 25.0 mg/kg/injection, schedule: Q01DX009 (ip), vehicle: saline): 89 % of control
T/C (dose: 25.0 mg/kg/injection, schedule: Q04DX003 (ip), vehicle: saline): 88 % of control
T/C (dose: 50.0 mg/kg/injection, schedule: Q01DX009 (ip), vehicle: saline): 92 % of control
T/C (dose: 50.0 mg/kg/injection, schedule: Q04DX003 (ip), vehicle: saline): 92 % of control

COc1cccc(/C=C/C(=O)O)c1OC
T/C [8]: 106 % of control
T/C [4]: 103 % of control
T/C [5]: 112 % of control
T/C [6]: 106 % of control
T/C [7]: 97 % of control

O=C(Nc1cccc2ccccc12)N1c2ccccc2SC12CCCC2
T/C [10]: 91 % of control

C=C1C(=O)OC2C=C(C)CC3C=C(CCC=C(C)CCC12)C(=O)O3 (stereo not given)
T/C [2]: 88 % of control
T/C (dose: 30.0 mg/kg/injection, schedule: Q01DX009 (ip), vehicle: saline): 105 % of control
T/C (dose: 40.0 mg/kg/injection, schedule: Q01DX009 (ip), vehicle: saline): 94 % of control
T/C (dose: 60.0 mg/kg/injection, schedule: Q01DX009 (ip), vehicle: saline): 120 % of control
T/C (dose: 120.0 mg/kg/injection, schedule: Q01DX009 (ip), vehicle: saline): 112 % of control

COc1cc2c3c(c1)/C(=N\N)CCN3CCC2
T/C (dose: 25.0 mg/kg/injection, schedule: Q01DX009 (ip), vehicle: saline with Tween-80): 110 % of control
T/C [9]: 110 % of control
T/C (dose: 50.0 mg/kg/injection, schedule: Q04DX003 (ip), vehicle: saline with Tween-80): 113 % of control
T/C [10]: 100 % of control
T/C [1]: 95 % of control
T/C (dose: 200.0 mg/kg/injection, schedule: Q04DX003 (ip), vehicle: saline with Tween-80): 100 % of control

N#CCCCn1nnc(-c2ccccc2)n1
T/C [9]: 100 % of control
T/C [10]: 108 % of control

OCCSc1ncc2cnccn12
T/C [5]: 109 % of control
T/C [6]: 109 % of control
T/C [7]: 109 % of control
